These results are taken from patent US11154519B2, “Inhibitors and their uses” (MEDICAL RESEARCH COUNCIL, priority 2015, dated 2021).

The target in one series is T1, PP1 (Homo sapiens, UniProt P36873).
T1 construct: made in house; host or cells: Sf9 insect cells (baculovirus, pDW464)
The series can be described thus: SPR binding to PP1 alone. The conditions noted are these: SPR steady-state, bio-PP1c surface. A general note: In SPR one partner is held on a chip, and binding of the other changes the refractive index at the surface.

Series [1] relates to HeLa cells. The series can be described thus: Cytoprotection against ER stress (tunicamycin), IncuCyte. The class given is cell-based. The note with it: Homo sapiens, 250 ng/ml Tunicamycin, 72 hours, compound 0-20 μM, read-out: Cytoprotection from Tm (compared to GNB). The protocol:
(§1) HeLa cells (40,000 cells/ml) were plated in a 96-well plate and treated with different concentrations (0-20 μM) of a compound as indicated in the presence of 250 ng/ml Tunicamycin for 72 hours. To monitor cell death 1/2000 dilution of the CellTox green dye (Promega) was added to the media. The growth of the cells was monitored over time and pictures taken every 2 hours with the IncuCyte ZOOM system and analysed by the IncuCyte ZOOM software (Essen BioScience). […] Cytoprotection against ER stress can be measured by a suitable assay. In this instance, cytoprotection was measured in HeLa cells in which ER stress was elicited by the addition of media containing tunicamycin, a drug that blocks N-glycosylation, thereby preventing protein folding and inducing the unfolded protein response. Cell viability was then detected in the presence and absence of a compound listed in Table 1 after a set period of time, by monitoring cell growth over time. Cytoprotection from ER stress was measured in terms of the percentage increase in viable cells (relative to control) after ER stress.

Series [2] has as its system HeLa cells. The experiment in a line: Cell death dose response (CellTox green, IncuCyte). The note with it: for EC50: Homo sapiens, area under % cell death vs time curve against log conc, read-out: Effect on cell death ⇒ EC50; for Effect on cell death: IncuCyte, 0-20 μM. It counts as cell-based. The procedure: Toxicity of the compounds is assessed using Cell viability Counting Kit-8 (Dojindo) or in a Incucyte (Essenbioscience) using both phase contrast and IncuCyte™ Cytotox Green Reagent.
as §1
EC50 were extrapolated from dose response experiments on cell death. Data from IncuCyte was plotted and analysed in Prism. The “% of cell death” for each data point. For each concentration there is a % of cell death vs time, the area under the curve was taken and plotted against log conc=>EC50 (analysis in Prism).

In the next series the test system is protein synthesis. The series can be described thus: Assessment of translation rates (35S-methionine labelling). It counts as cell-based. The note with it: for Effect on translation ⇒ Inhibits: target(s) concluded to be inhibited; for Effect on translation: 35S-methionine labelling of cells. The procedure:
Cells (90,000 cells/ml) were plated in 12-well plates, treated as indicated, labelled with 100 μCi/mI 35S-methionine (Hartmann Analytic) for 10 minutes at 37° C., washed with ice-cold PBS and lysed in 120 μl Laemmli Buffer. Lysates were boiled at 95° C. for 5 minutes, sonicated and resolved on 4-12% Bolt Bis-Tris Plus Gels (Thermo Fisher Scientific). Gels were then stained with InstantBlue (Expedeon) and analyzed by phosphorimaging and quantified using ImageJ.
By monitoring translation rates as described above, the activities of R15A, R15B and R15A/B inhibitors can be defined as follows (also shown in FIG. 12). An R15A inhibitor has no effect on translation in unstressed cells but prolongs translation attenuation following stress. A selective R15B inhibitor transiently attenuate protein synthesis because R15A compensates for the inhibition of R15B.

T1 sequence (P36873 whole entry): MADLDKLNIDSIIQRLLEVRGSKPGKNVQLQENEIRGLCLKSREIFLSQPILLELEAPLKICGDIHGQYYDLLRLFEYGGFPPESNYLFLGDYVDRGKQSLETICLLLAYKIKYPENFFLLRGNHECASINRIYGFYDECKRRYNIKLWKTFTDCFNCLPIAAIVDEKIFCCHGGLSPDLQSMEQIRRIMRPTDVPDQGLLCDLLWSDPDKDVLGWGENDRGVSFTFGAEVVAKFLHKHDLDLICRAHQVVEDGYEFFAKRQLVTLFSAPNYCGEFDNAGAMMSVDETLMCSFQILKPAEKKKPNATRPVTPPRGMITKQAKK

The term Kd denotes the constant that tells how readily two partners part at equilibrium. High values mean lower affinity, low ones higher affinity. For orientation: EC50 means the concentration needed to bring the measured effect to its halfway point. As to `[H]/N=C(\N)NN=Cc1ccc(Cl)c(F)c1` [Compound 8, (E)-2-(4-chloro-3-fluorobenzylidene)hydrazine-1-carboximidamide], on PP1, the Kd came out at 10.6 ± 3.82 µM. Moreover, in the series with HeLa cells [1], the Emax came out at 0%. In the series with HeLa cells [2], the EC50 is 11.7 µM and the “Effect on cell death” value is given as “Yes”. Further, the “Effect on translation ⇒ Inhibits” value in the series on protein synthesis was “R15AB”.

Consider `[H]/N=C(\N)NN=Cc1cc(Cl)cc(Cl)c1` [Compound 34, (E)-2-(3,5-dichlorobenzylidene)hydrazine-1-carboximidamide], for which the Emax in the series with HeLa cells [1] was 57%. The “Effect on cell death” value in the series with HeLa cells [2] is “No”. Moreover, the “Effect on translation ⇒ Inhibits” value in the series with protein synthesis is listed as “R15AB”.

Turning to `[H]/N=C(\N)NN=Cc1ccc(Cl)c(Cl)c1` [Compound 11, (E)-2-(3,4-dichlorobenzylidene)hydrazine-1-carboximidamide], the Emax in the series with HeLa cells [1] was found to be 34%. Moreover, in the series with HeLa cells [2], the EC50 was 12.7 µM and the “Effect on cell death” value was “Yes”. Also, the “Effect on translation ⇒ Inhibits” value in the series with protein synthesis was “R15AB”.

For `[H]/N=C(\N)NN=Cc1cc(F)cc(F)c1Cl` [Compound 29, (E)-2-(2-chloro-3,5-difluorobenzylidene)hydrazine-1-carboximidamide], the Emax in the series with HeLa cells [1] amounted to 62%. The “Effect on cell death” value in the series with HeLa cells [2] is recorded as “No”. For the same molecule, in the series on protein synthesis, the “Effect on translation ⇒ Inhibits” value was “R15AB”.

`[H]/N=C(\N)NN=Cc1cc(F)ccc1Cl` [Compound 20, (E)-2-(2-chloro-5-fluorobenzylidene)hydrazine-1-carboximidamide]: the Emax in the series on HeLa cells [1] turned out to be 88%. Besides, in the series with HeLa cells [2], the EC50 is 37.8 µM and the “Effect on cell death” value is listed as “Yes”. In addition, the “Effect on translation ⇒ Inhibits” value in the series on protein synthesis was “R15AB”.

In turn, `[H]/N=C(\N)NN=Cc1ccccc1F` [Compound 17, (E)-2-(2-fluorobenzylidene)hydrazine-1-carboximidamide] returned an equilibrium dissociation constant (Kd) on PP1 of 12 ± 0.8 µM. Besides, the Emax in the series on HeLa cells [1] stood at 66%. Besides, in the series with HeLa cells [2], the “Effect on cell death” value was “No”. For the same molecule, the Effect on translation result in the series on protein synthesis is reported as “(No)”.

Turning to `N=C(N)N/N=C/c1cc(Cl)c(Cl)c(Cl)c1` [Compound 3, (E)-2-(3,4,5-trichlorobenzylidene)hydrazine-1-carboximidamide], the Kd at PP1 stood at 10.3 µM. For the same molecule, the Emax with HeLa cells [1] was determined as 52%. In the series on HeLa cells [2], the EC50 stood at 9.17 µM and the “Effect on cell death” value was “Yes”. In the series with protein synthesis, the Effect on translation result was “Persistent”.

For `[H]/N=C(\N)NN=Cc1c(Cl)ccc(Cl)c1Cl` [Compound 31, (E)-2-(2,3,6-trichlorobenzylidene)hydrazine-1-carboximidamide], binding at PP1 was put at a Kd of 12.6 ± 1.4 µM. For the same molecule, the Emax with HeLa cells [1] was found to be 99%. For the same molecule, the “Effect on cell death” value in the series with HeLa cells [2] is given as “No”. Also, the Effect on translation entry in the series with protein synthesis was “No”.

On to `[H]/N=C(\N)NN=Cc1ccc(F)c(Cl)c1Cl` [Compound 14, (E)-2-(2,3-dichloro-4-fluorobenzylidene)hydrazine-1-carboximidamide], for which, in the series on HeLa cells [1], the Emax is 100%. Further, in the series with HeLa cells [2], the EC50 came to 18.4 µM and the “Effect on cell death” value was “Yes”. For the same molecule, the Effect on translation entry in the series with protein synthesis is given as “Persistent”.

For `[H]/N=C(\N)NN=Cc1cc(Cl)ccc1Cl` [Compound 26, (E)-2-(2,5-dichlorobenzylidene)hydrazine-1-carboximidamide], the Emax with HeLa cells [1] turned out to be 57%. Moreover, the “Effect on cell death” value in the series on HeLa cells [2] was “No”. In addition, the “Effect on translation ⇒ Inhibits” value in the series on protein synthesis is listed as “R15AB”.

`[H]/N=C(\N)NN=Cc1cccc(Cl)c1Br` [Compound 9, (E)-2-(2-bromo-3-chlorobenzylidene)hydrazine-1-carboximidamide] gave a Kd at PP1 of 14.7 ± 1.4 µM. The Emax in the series on HeLa cells [1] amounted to 67%. Moreover, in the series on HeLa cells [2], the concentration for a half-maximal effect (EC50) was 12 µM and the “Effect on cell death” value is reported as “Yes”. In the series on protein synthesis, the “Effect on translation ⇒ Inhibits” value is on record as “Off”.

At PP1, `[H]/N=C(\N)NN=Cc1cccc(Cl)c1` [Compound 24, (E)-2-(3-chlorobenzylidene)hydrazine-1-carboximidamide] registered a Kd of 6.27 µM. Also, in the series with HeLa cells [1], the Emax is 62%. Besides, in the series with HeLa cells [2], the “Effect on cell death” value is reported as “No”. The “Effect on translation ⇒ Inhibits” value in the series with protein synthesis was “R15AB”.

As for `[H]/N=C(\N)NN=Cc1ccc(Cl)nc1Cl` [Compound 22, (E)-2-((2,6-dichloropyridin-3-yl)methylene)hydrazine-1-carboximidamide], in the series with HeLa cells [1], the Emax amounted to 48%. Moreover, the “Effect on cell death” value with HeLa cells [2] was “No”. Further, in the series on protein synthesis, the “Effect on translation ⇒ Inhibits” value is “R15AB”.

Consider `[H]/N=C(\N)NN=Cc1cc(Cl)c(F)c(Cl)c1` [Compound 5, (E)-2-(3,5-dichloro-4-fluorobenzylidene)hydrazine-1-carboximidamide], for which the Kd at PP1 amounted to 30.6 µM. The Emax in the series on HeLa cells [1] worked out at 48%. For the same molecule, in the series with HeLa cells [2], the EC50 worked out at 9.46 µM and the “Effect on cell death” value is reported as “Yes”.

As to `[H]/N=C(\N)NN=Cc1ccc(Cl)c(Cl)c1Cl` [Compound 6, (E)-2-(2,3,4-trichlorobenzylidene)hydrazine-1-carboximidamide], the Emax in the series on HeLa cells [1] was determined as 61%. In addition, in the series with HeLa cells [2], the EC50 is 9.65 µM and the “Effect on cell death” value is reported as “Yes”. For the same molecule, the Effect on translation result in the series on protein synthesis is given as “Persistent”.

Take `[H]/N=C(\N)NN=Cc1ccc(F)c(Cl)c1` [Compound 15, (E)-2-(3-chloro-4-fluorobenzylidene)hydrazine-1-carboximidamide]: the Kd at PP1 is 6.14 ± 0.28 µM. In addition, the Emax in the series with HeLa cells [1] is 46%. Further, in the series with HeLa cells [2], the EC50 is 19.5 µM and the “Effect on cell death” value is reported as “Yes”.

Take `[H]/N=C(\N)NN=Cc1cccc(F)c1` [Compound 23, (E)-2-(3-fluorobenzylidene)hydrazine-1-carboximidamide]: the Emax in the series on HeLa cells [1] amounted to 53%. Besides, the “Effect on cell death” value in the series with HeLa cells [2] is “No”. Also, the “Effect on translation ⇒ Inhibits” value in the series on protein synthesis is “R15AB”.

`[H]/N=C(\N)NN=Cc1cc(F)c(Cl)cc1Cl` [Compound 7, (E)-2-(2,4-dichloro-5-fluorobenzylidene)hydrazine-1-carboximidamide] showed a Kd at PP1 of 13 µM. The Emax in the series on HeLa cells [1] turned out to be 46%. Also, in the series with HeLa cells [2], the EC50 was determined as 11.5 µM and the “Effect on cell death” value was “Yes”. Besides, the “Effect on translation ⇒ Inhibits” value in the series with protein synthesis is on record as “R15AB”.

As for `[H]/N=C(\N)NN=Cc1cc(Cl)cc(Cl)c1Cl` [Compound 10, (E)-2-(2,3,5-trichlorobenzylidene)hydrazine-1-carboximidamide], the Emax in the series on HeLa cells [1] was found to be 85%. Further, in the series on HeLa cells [2], the EC50 was 12.5 µM and the “Effect on cell death” value was “Yes”. In the series with protein synthesis, the Effect on translation result is “Persistent”. Also, the protein synthesis rates result in the series with protein synthesis (unstressed cells, 10 μM, FIG. 12) was “persistently inhibits protein synthesis”.

Consider `N=C(N)N/N=C/c1cc(Cl)c(Cl)cc1F` [Compound 18, (E)-2-(4,5-dichloro-2-fluorobenzylidene)hydrazine-1-carboximidamide], for which the Kd on PP1 is 10.2 ± 0.14 µM. Further, in the series with HeLa cells [1], the Emax is 54%. For the same molecule, in the series on HeLa cells [2], the 50% effective concentration (EC50) was found to be 23.8 µM and the “Effect on cell death” value was “Yes”.

As for `[H]/N=C(\N)NN=Cc1cccnc1Cl` [Compound 21, (E)-2-((2-chloropyridin-3-yl)methylene)hydrazine-1-carboximidamide], the Emax with HeLa cells [1] turned out to be 41%. In addition, in the series on HeLa cells [2], the “Effect on cell death” value is listed as “No”. In addition, in the series with protein synthesis, the Effect on translation result is “Transient”.

`[H]/N=C(\N)NN=Cc1ccc(Cl)c(F)c1Cl` [Compound 13, (E)-2-(2,4-dichloro-3-fluorobenzylidene)hydrazine-1-carboximidamide]: the Emax with HeLa cells [1] turned out to be 73%. In the series with HeLa cells [2], the EC50 was found to be 15.5 µM and the “Effect on cell death” value was “Yes”. In the series on protein synthesis, the Effect on translation entry is “Persistent” and the “Effect on translation ⇒ Inhibits” value is given as “R15AB”.

`[H]/N=C(\N)NN=Cc1ccc(Cl)cc1` [Compound 1, (E)-2-((4-chlorophenyl)methylene)hydrazine-1-carboximidamide]: at PP1, binding was characterised by a dissociation constant (Kd) of 6.28 µM. In the series with HeLa cells [1], the Emax amounted to 0%. Also, in the series on HeLa cells [2], the EC50 came out at 4.9 µM and the “Effect on cell death” value is “Yes”.

As to `[H]/N=C(\N)NN=Cc1cccc(Cl)c1F` [Compound 30, (E)-2-(3-chloro-2-fluorobenzylidene)hydrazine-1-carboximidamide], binding on PP1 was characterised by a dissociation constant (Kd) of 12.8 ± 0.08 µM. The Emax in the series with HeLa cells [1] worked out at 85%. In the series on HeLa cells [2], the “Effect on cell death” value is “No”. Moreover, in the series with protein synthesis, the Effect on translation entry is “No”.
